From US20260234164A1, “BIPHENYL COMPOUND AS IMMUNOMODULATOR, PREPARATION METHOD THEREFOR AND USE THEREOF” (SHENZHEN CHIPSCREEN BIOSCIENCES CO., LTD., priority 2021, published 2026)

Tests used:
PD-1/PD-L1 binding = target: T1, PD-1/PD-L1 binding (Homo sapiens, UniProt Q9NZQ7); test: HTRF inhibition of PD-1/PD-L1 binding in vitro; details: His-PD-1 100 nM, PD-L1-Fc 2 nM, read-out: IC50 inhibiting PD-1/PD-L1 binding in vitro
T1 construct: purchased Sino Biological Inc. 10084-H02H-100 (PD-L1-Fc); 10377-H08H-50 (His-PD-1)
T1 sequence (Q9NZQ7 19-239 limits assumed): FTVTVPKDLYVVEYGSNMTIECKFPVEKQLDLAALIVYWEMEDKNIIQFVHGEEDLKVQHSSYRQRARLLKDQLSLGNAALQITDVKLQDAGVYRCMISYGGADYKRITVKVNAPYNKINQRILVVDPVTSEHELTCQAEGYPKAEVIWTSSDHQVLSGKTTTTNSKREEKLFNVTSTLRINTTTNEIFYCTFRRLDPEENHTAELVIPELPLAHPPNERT
Text: Homogeneous Time-Resolved Fluorescence (HTRF): This method used the recombinant human PD-L1 protein fused to express the hFc tag and the recombinant human PD-1 protein fused to express the His tag, both of which were interacting ligands and receptors. When the anti-hFc antibody containing Eu element chelation marker and the anti-His antibody labeled with XL665 fluorescein were bound with the above two corresponding labels, and excited by a laser with a wavelength of 320 nm, the ligand-receptor binding enabled the energy to be transferred from the Eu element to the XL665 fluorescein, which was excited to emit light at a wavelength of 665 nm. However, when an inhibitor of the interaction between PD-L1 and PD-1 was added, the binding of the ligand to the receptor was destroyed, so that the distance between Eu and XL665 was far away, the energy cannot be transferred, and XL665 would not be excited.
(§1) Recombinant human PD-1 protein with His tag (His-PD-1 protein, Cat #: 10377-H08H-50), and recombinant human PD-L1-Fc fusion protein (PD-L1-Fc fusion protein, Cat #: 10084-H02H-100) were purchased from Sino Biological Inc., anti-hFc-Eu^+ antibody and anti-His-XL665 antibody were purchased from Cisbio Company, and other related reagents such as dilution buffer (Diluent buffer 5, Cat #: 62DL5DDC), detection buffer (PPI-Europium detection buffer, Cat #: 61DB9RDF) were purchased from Cisbio Company. Fluorescence detection instrument Tecan (Spark 10 M) was purchased from Switzerland Tecan Company.
(§2) (1) Experimental preparation: The test compound was diluted with dilution buffer into different concentration gradients (the highest final concentration in 20 μL final reaction system was 10 μM), His-PD-1 protein was diluted to 800 nM (the final concentration in 20 μL final reaction system was 100 nM), and the PD-L1-Fc fusion protein was diluted to 16 nM (final concentration was 2 nM). The anti-His-XL665 antibody and anti-hFc-Eu^3+ antibody were respectively diluted 20 times and 100 times using the detection buffer according to the reagent requirements.
(§3) (2) 5 μL of test compound, 2.5 μL of PD-L1-Fc fusion protein and 2.5 μL of His-PD-1 protein solution were mixed, and incubated at room temperature for 15 min. Then the system was added with 5 μL of anti-His-XL665 antibody and 5 μL of anti-hFc-Eu^3+ antibody, incubated for another 3 h, and then detected.
(3) When detecting the reaction, a control group was also provided, including a 0% inhibition positive control without adding test compounds and a 100% inhibition negative control without adding PD-1 protein. All detections were performed with duplicates.
(§4) (4) The fluorescence signal of each well was measured using a fluorescence detector Tecan (Spark 10M) at an excitation wavelength of 320 nm, and emission wavelengths of 620 nm and 665 nm, respectively. The intensity of the mutual binding of PD-1 and PD-L1 referred to the ratio of fluorescence signals Em665/Em620.
(§5) (5) The binding inhibition rate of the test compound was calculated as follows: Inhibition rate (%)=[1−(Fluorescence signal ratio of detection well-fluorescence signal ratio of 100% inhibition negative control)]/(fluorescence signal ratio of 0% inhibition positive control-fluorescence signal ratio of 100% inhibition negative control)×100%. After calculating the inhibition rate on PD-1/PD-L1 binding of the test compounds with different concentration gradients, the 50% inhibitory concentration (IC50) was calculated.

CD80/PD-L1 binding = target: T2, CD80/PD-L1 binding (Homo sapiens, UniProt Q9NZQ7); test: HTRF inhibition of CD80/PD-L1 binding in vitro; details: His-CD80 100 nM, PD-L1-Fc 2 nM, read-out: IC50 inhibiting CD80/PD-L1 binding in vitro
T2 construct: purchased Sino Biological Inc. 10084-H02H-100 (PD-L1-Fc); 10698-H08H-100 (His-CD80)
T2 sequence (Q9NZQ7 19-239 limits assumed): as above
Text: In addition to PD-1, PD-L1 can also exert immunosuppressive activity by binding to CD80. Similarly, in vitro experiments of binding or binding inhibition of CD80 and PD-L1 can also be measured by homogeneous time-resolved fluorescence (HTRF). When the anti-hFc-Eu^3+ antibody and anti-His-XL665 antibody were bound to the hFC tag fused to PD-L1 and the His tag fused to CD80 respectively, and excited with a 320 nm wavelength laser, the binding of PD-L1 and CD80 enabled energy to be transferred from the Eu element to the XL665 fluorescein, which was excited to emit light. When the inhibitor of the interaction between PD-L1 and CD80 was added, the combination of the two was destroyed, so that the distance between Eu and XL665 was far away, the energy cannot be transferred, and XL665 would not be excited.
as §1, with “CD80” for “PD-1”, “(His-CD80” for “(His-PD-1”, “10698-H08H-100),” for “10377-H08H-50),”, “anti-hFc-Eu^3+” for “anti-hFc-Eu^+”
as §2, with “His-CD80” for “His-PD-1”
as §3, with “Hid-CD80” for “PD-L1-Fc fusion”, “[…]” for “His-PD-1”
(3) When detecting the reaction, a control group was provided, including a 0% inhibition positive control without adding test compounds and a 100% inhibition negative control without adding CD-80 protein. All detections were performed with duplicates.
as §4, with “CD80” for “PD-1”
as §5, with “CD80/PD-L1” for “PD-1/PD-L1”

- IC50 (PD-1/PD-L1 binding): 1.23 nM
- IC50 (CD80/PD-L1 binding): 1.44 nM
SMILES: [2H]c1c([2H])c(NC(=O)c2nc3c(n2C([2H])([2H])[2H])CCN(CCC24CCC(COC([2H])([2H])[2H])(CC2)C4)C3)c(Cl)c(-c2c([2H])c([2H])c([2H])c(NC(=O)c3nc4c(n3C([2H])([2H])[2H])CCN(CCC35CCC(C(=O)O)(CC3)C5)C4)c2Cl)c1[2H] [Compound I-13, 4-(2-(2-((2,2′-dichloro-3′-(5-(2-(4-((methoxy-d3)methyl)bicyclo[2.2.1]heptane-1-yl)ethyl)-1-(methyl-d3)-4,5,6,7-tetrahydro-1H-imidazo[4,5-c]pyridine-2-carboxamido)-[1,1′-biphenyl]-3-yl-4,4′, 5,5′,6,6′-d6)carbamoyl)-1-(methyl-d3)-1,4,6,7-tetrahydro-5H-imidazo[4,5-c]pyridin-5-yl)ethyl)bicyclo[2.2.1]heptane-1-carboxylic acid]
